In patent US20180296523A1, “USE OF POLYMETHOXYLATED FLAVONES TO AMELIORATE CIRCADIAN RHYTHM DISORDERS” (THE BOARD OF REGENTS OF THE UNIVERSITY OF TEXAS SY, priority 2017, published 2018):
Values belong to the compound of their own block, whether it stands above or below them.

What was measured:
RORα-LBD = target: T1, RORα-LBD (Homo sapiens, UniProt P35398); experiment: Radioligand receptor binding assay with 25-[3H]-OHC, RORα-LBD; details: for competitive binding to RORα-LBD: in the presence of 4.5 nM 25-[3H]-OHC
T1 sequence (P35398 272-510 limits assumed): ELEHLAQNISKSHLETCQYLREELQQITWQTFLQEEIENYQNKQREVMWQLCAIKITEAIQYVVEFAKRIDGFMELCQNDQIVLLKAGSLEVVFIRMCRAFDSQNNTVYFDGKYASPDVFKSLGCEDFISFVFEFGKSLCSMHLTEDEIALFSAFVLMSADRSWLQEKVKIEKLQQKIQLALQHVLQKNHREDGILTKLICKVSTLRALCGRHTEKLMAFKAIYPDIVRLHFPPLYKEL
Experimental: (§1) Ligand binding was determined by filter binding assays to calculate the Kd value. […] Ki was determined using the Cheng-Prusoff equation.

GAL4 DBD-RORα LBD = target: T2, GAL4 DBD-RORα LBD (Mus musculus, UniProt P51448); experiment: Mammalian one-hybrid reporter assay in HEK293T cells, GAL4-RORα; format: cell-based; details: ligand interaction reduces transcriptional activity
T2 construct: mouse RORα-LBD (aa 261-523); expressed in transfected cells; host or cells: HEK293T
T2 sequence (P51448 261-523): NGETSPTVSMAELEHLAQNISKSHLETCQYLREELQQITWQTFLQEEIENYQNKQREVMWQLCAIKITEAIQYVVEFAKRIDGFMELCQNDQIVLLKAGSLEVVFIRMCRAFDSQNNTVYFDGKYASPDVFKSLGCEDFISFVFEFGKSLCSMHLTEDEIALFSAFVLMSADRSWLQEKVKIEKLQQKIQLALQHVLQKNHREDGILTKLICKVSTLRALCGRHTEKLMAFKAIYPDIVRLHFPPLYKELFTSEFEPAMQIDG
Source text: (§2) Plasmids containing the retinoic acid-related orphan receptor response element (RORE) from mouse Bmal1 promoter, pcDNA3.1B-G4DBD-RORαLBD and pcDNA3.1BG4DBD-RORγLBD were constructed in our lab. Specifically, the 1960 bp sequences (−1830/+130) of the mouse Bmal1 promoter harboring either WT ([…] (SEQ ID NO:1) and […] (SEQ ID NO:2)) or mutant ([…] (SEQ ID NO:3)) RORE were PCR amplified from mouse genomic DNA and cloned into pGL3-promoter luciferase vector. For expression of RORα or RORγ-GAL4 protein, mouse RORα-LBD (aa 261-523) or RORγ-LBD (aa 250-516) were PCR amplified from mouse genomic DNA and cloned into a GAL4-DBD-containing vector, pcDNA3.1B.
(§3) For mammalian one-hybrid assays, HEK293T cells were cotransfected with pcDNA3.1B-G4DBD-RORα/γLBD, pGL4.31 and TK promoter Renilla luciferase construct (tK.pRL). To investigate the regulation of the Bmal1 reporter, Hepa1-6 cells were cotransfected with Bmal1-WT or mutant RORE reporter plasmids, RORα, RORγ or Rev-erbα expression construct along with tK.pRL. Mouse and human siRNA targeting RORα and RORγ were purchased from Santa Cruz. Transfection was performed by Lipfectamine 2000 reagent (Invitrogen) Twenty-four hours after transfection, the cells were treated with vehicle or NOB. Lysates were collected 24 h after treatment, and firefly and Renilla luciferase activities were measured by using a Dual-Luciferase Reporter System (Promega).
(§4) For radio-ligand receptor binding assays, previously described protocols with minor modifications (Kumar et al., 2010; Wang et al., 2010b) were adopted.

GAL4 DBD-RORγ LBD = target: T3, GAL4 DBD-RORγ LBD (Mus musculus, UniProt P51450); experiment: Mammalian one-hybrid reporter assay in HEK293T cells, GAL4-RORγ; format: cell-based; details: ligand interaction reduces transcriptional activity
T3 construct: RORγ-LBD (aa 250-516); expressed in transfected cells; host or cells: HEK293T
T3 sequence (P51450 250-516): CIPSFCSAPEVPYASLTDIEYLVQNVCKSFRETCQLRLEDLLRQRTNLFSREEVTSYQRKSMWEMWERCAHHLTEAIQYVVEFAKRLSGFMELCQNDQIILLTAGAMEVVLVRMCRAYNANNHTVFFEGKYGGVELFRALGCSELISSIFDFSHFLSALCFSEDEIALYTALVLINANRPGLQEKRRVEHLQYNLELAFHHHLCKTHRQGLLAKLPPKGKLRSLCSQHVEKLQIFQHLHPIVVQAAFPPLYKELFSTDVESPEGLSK
Source text: as §2, §3, §4

[1] = test system: Clock^Δ19/+ PER2::Luc reporter cells; experiment: High-throughput chemical screen, PER2::Luc reporter rhythm; format: cell-based, mouse; details: for PER2::Luc reporter rhythm / circadian amplitude: Clock^Δ19/+ cells, forskolin pre-stimulated
Experimental: Specifically, the chemical screen for circadian clock modulators was conducted at the Chemical Genomics Core facility at the University of Texas Health Science Center at Houston (UTHSC-H). The in-house chemical library screened consisted of compounds from the National Institutes of Health (NIH) Clinical Collection, National Cancer Institute collection, and Microsource Spectrum Collection. Screening was conducted largely on the basis of the protocol previously described (Chen et al., 2012). […] Upon confluency, cells were incubated with 5 μM forskolin for 1-2 hr, followed by the addition of chemical compounds to the plates with robotic arms (Beckman), and then subjected to continuous monitoring over several days in a temperature-controlled EnVision microplate reader (Perkin Elmer). Data analysis was carried out by using the MultiCycle software (Actimetrics) for measurement of period, phase, and amplitude. The chemical screen for circadian clock modulators was conducted at the Chemical Genomics Core facility at the UTHSC-H. The in-house chemical library screened consists of compounds from NIH Clinical Collection, NCI collection and Microsource Spectrum Collection. The screening was conducted largely based on the protocol previously described (Chen et al., 2012). […] Cells were then incubated with 5 μM forskolin for 1-2 h followed by the addition of chemical compounds to the plates with robotic arms (Beckman), and then subjected to continuous monitoring over several days in a temperature-controlled EnVision microplate reader (Perkin Elmer). Data analysis was carried out by using the MultiCycle software (Actimetrics) for measurement of period, phase, and amplitude. […] Tissue explant experiments were conducted as described previously (Chen et al., 2012).

[2] = test system: PER2::LucSV reporter fibroblast cells; experiment: Dose response validation of reporter rhythm in PER2::LucSV cells; format: cell-based, mouse; details: PER2::LucSV reporter cells
Experimental: The chemical screen for circadian clock modulators was conducted at the Chemical Genomics Core facility at the UTHSC-H. The in-house chemical library screened consists of compounds from NIH Clinical Collection, NCI collection and Microsource Spectrum Collection. The screening was conducted largely based on the protocol previously described (Chen et al., 2012). […] Cells were then incubated with 5 μM forskolin for 1-2 h followed by the addition of chemical compounds to the plates with robotic arms (Beckman), and then subjected to continuous monitoring over several days in a temperature-controlled EnVision microplate reader (Perkin Elmer). Data analysis was carried out by using the MultiCycle software (Actimetrics) for measurement of period, phase, and amplitude. […] Tissue explant experiments were conducted as described previously (Chen et al., 2012).

RORγ-LBD = target: T4, RORγ-LBD (Homo sapiens, UniProt P51449); experiment: Radioligand receptor binding assay with 25-[3H]-OHC, RORγ-LBD; details: in the presence of 4.5 nM 25-[3H]-OHC
T4 sequence (P51449 269-508 limits assumed): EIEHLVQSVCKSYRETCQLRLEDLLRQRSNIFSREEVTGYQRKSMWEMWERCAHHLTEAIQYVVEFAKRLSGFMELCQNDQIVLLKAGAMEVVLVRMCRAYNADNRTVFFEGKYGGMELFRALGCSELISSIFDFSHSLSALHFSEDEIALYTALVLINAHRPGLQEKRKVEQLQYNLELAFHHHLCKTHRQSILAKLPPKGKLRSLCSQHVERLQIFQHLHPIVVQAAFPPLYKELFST
Experimental: as §1

total number of binding sites (Bmax) (RORα-LBD; Scatchard plot, RORα): 100 fmol/mg of protein
SMILES: C[C@H](CCCC(C)(C)O)[C@H]1CC[C@H]2[C@@H]3CC=C4C[C@@H](O)CC[C@]4(C)[C@H]3CC[C@]12C [25-[3H]—OHC, 25-[3H]-hydroxycholesterol]

activity on GAL4-RORα chimeric receptor (GAL4 DBD-RORα LBD): robust activities | activity on GAL4-RORγ chimeric receptor (GAL4 DBD-RORγ LBD): robust activities
SMILES: CC(=O)Nc1nc(C)c(S(=O)(=O)Nc2ccc(C(O)(C(F)(F)F)C(F)(F)F)cc2)s1 [SR1001]

SMILES: COc1ccc(-c2cc(=O)c3c(OC)c(OC)c(OC)c(OC)c3o2)cc1 [tangeretin]
PER2::Luc reporter rhythm / circadian amplitude [1]: similarly enhanced the PER2::Luc reporter rhythm

competitive binding to RORα-LBD (RORα-LBD): no direct binding | competitive binding to RORα-LBD (RORα-LBD; listed as Naringenin): markedly diminished binding | competitive binding to RORγ-LBD (RORγ-LBD): no direct binding | competitive binding to RORγ-LBD (RORγ-LBD; listed as Naringenin): markedly diminished binding
SMILES: O=C1C[C@@H](c2ccc(O)cc2)Oc2cc(O)cc(O)c21 [naringenin]
PER2::Luc reporter rhythm / circadian amplitude [1]: failed to enhance cellular circadian rhythms | reporter luminescence ([1]; PER2::LUC Clock^Δ19/+ reporter cells): did not enhance the reporter luminescence | reporter luminescence [2]: did not enhance the reporter luminescence
